Assay results from PubChem BioAssay (NCI).
Several values for one entry are separate records, joined by “and”; a condition that tells them apart may be missing. Identical values can stand only once.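 These data come from cells grown in 96-well plates and exposed to compound for 48 hours at five concentrations. GI50: concentration for 50% inhibition of growth. The concentration for full growth arrest is given as TGI.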

Tests used:
Assay in all cases: NCI anticancer screen, dose series, 48 h
786-0 renal = tested on: 786-0 renal
K-562 leukemia = tested on: K-562 leukemia
SNB-19 CNS = tested on: SNB-19 CNS
CAKI-1 renal = tested on: CAKI-1 renal
DU-145 prostate = tested on: DU-145 prostate
HCT-116 colon = tested on: HCT-116 colon
SNB-75 CNS = tested on: SNB-75 CNS
RXF 393 renal = tested on: RXF 393 renal
MCF7 breast = tested on: MCF7 breast
RPMI-8226 leukemia = tested on: RPMI-8226 leukemia

Compound	GI50 (786-0 renal)	TGI (786-0 renal)	GI50 (K-562 leukemia)	TGI (K-562 leukemia)	GI50 (SNB-19 CNS)	TGI (SNB-19 CNS)	GI50 (CAKI-1 renal)	TGI (CAKI-1 renal)	GI50 (DU-145 prostate)	TGI (DU-145 prostate)	GI50 (HCT-116 colon)	TGI (HCT-116 colon)	GI50 (SNB-75 CNS)	TGI (SNB-75 CNS)	GI50 (RXF 393 renal)	TGI (RXF 393 renal)	GI50 (MCF7 breast)	TGI (MCF7 breast)	GI50 (RPMI-8226 leukemia)	TGI (RPMI-8226 leukemia)
Cn1nccc1Nc1nccc(-c2ccn([C@H](CO)c3ccc(Cl)c(F)c3)c(=O)c2)n1	31.4 µM	> 100 µM	22.5 µM	> 100 µM	27.6 µM	> 100 µM	34.3 µM	> 100 µM	27.7 µM	> 100 µM	2.79 µM	21.1 µM	24.9 µM	> 100 µM	20.4 µM	65.5 µM	27.4 µM	> 100 µM	21.6 µM	59.3 µM
O=C1C=C[C@H](O)[C@@]2(CO)O[C@@H]12	16.4 µM	30 µM	3.35 µM	> 75.5 µM	18.9 µM	48.9 µM	3.04 µM	19.3 µM	14.3 µM	27.4 µM	1.79 µM	3.33 µM	11.3 µM	23.4 µM	4.96 µM	12 µM	5.38 µM	23.8 µM	3.38 µM	12 µM
CCN(CC)Cc1cc(Nc2nc(NC3CCC(N(C)C)CC3)c3ccccc3n2)ccc1OC (centres undefined)	6.67 µM	19.3 µM	1.98 µM	5.23 µM	8.6 µM	22.6 µM	30.9 µM	> 100 µM	10.5 µM	22.2 µM	3.37 µM	12.8 µM	2.17 µM	17.5 µM	0.578 µM	8.44 µM	3.83 µM	14.6 µM	2.34 µM	6.63 µM
COC1N(C2CC(O)C(CO)O2)C(=O)NC(=O)C1(F)Br (centres undefined)	31.9 µM	50 µM and > 100 µM		50 µM and > 100 µM	26.6 µM	50 µM and > 100 µM	24.9 µM	50 µM and > 100 µM		> 100 µM	12.6 µM	50 µM and > 100 µM	7.44 µM	50 µM and 81.6 µM	37.2 µM	50 µM and > 100 µM		> 100 µM	34.1 µM	50 µM and > 100 µM
Cc1ccc(O)cc1Nc1ccnc2ccc(S(C)(=O)=O)cc12	1.87 µM	> 25 µM	0.161 µM	> 25 µM	7.66 µM	> 25 µM	0.74 µM	5.12 µM	7.23 µM	> 20.4 µM	3.53 µM	> 25 µM	0.106 µM	1.28 µM	0.381 µM	1.99 µM	> 25 µM	> 25 µM	> 25 µM	> 25 µM
COc1ccc2c(c1)c(-c1nc(-c3c[nH]c4ncccc34)cs1)cn2CCCN1CCOCC1	1.74 µM	3.44 µM	2.08 µM	4.95 µM	2.86 µM	8.71 µM	1.88 µM	4.67 µM	3.15 µM	11 µM	1.85 µM	4.04 µM	1.27 µM	3.4 µM	2.09 µM	4.88 µM	1.43 µM	8.83 µM	1.92 µM	4.86 µM
CCNc1nc(O)c(/C=C2\C=Nc3ncccc32)s1	2.71 µM	> 100 µM	10 µM	> 100 µM	3.6 µM	> 100 µM	3.66 µM	> 100 µM	3.25 µM	47.4 µM	2.5 µM	> 100 µM	1.92 µM	4.25 µM	2.05 µM	4.29 µM	2.55 µM	> 100 µM	11.7 µM	68 µM
CCN(C)c1nc(N(C)CC)c2nc(N(C)CC)nc(N(C)CC)c2n1		> 100 µM		> 100 µM		> 100 µM		> 100 µM		> 100 µM		> 100 µM		> 100 µM		> 100 µM		> 100 µM		> 100 µM
OC1(c2ccc(Cl)c(C(F)(F)F)c2)CCN(CCCC(c2ccc(F)cc2)c2ccc(F)cc2)CC1	0.832 µM	1.52 µM	0.781 µM	1.75 µM	1.13 µM	3.86 µM	0.922 µM	1.9 µM	0.897 µM	1.66 µM	0.734 µM	1.41 µM	0.713 µM	1.43 µM	0.638 µM	1.27 µM	0.796 µM	1.47 µM	1.1 µM	2.67 µM
O=C(OCc1ccc2c(Br)cc(Br)c(O)c2n1)c1cc2ccccc2[nH]1	0.851 µM	2.22 µM	0.398 µM	> 40 µM	1.8 µM	4.09 µM	0.505 µM	1.86 µM	0.91 µM	2.18 µM	0.16 µM	0.368 µM	0.328 µM	1.8 µM	0.338 µM	1.26 µM	0.434 µM	2.07 µM	0.357 µM	1.94 µM
Nc1nc2c(c3cnccc13)C(c1ccc(Cl)c(Cl)c1)Cc1cnccc1-2 (centres undefined)	0.565 µM	3.9 µM	0.452 µM	32.8 µM	0.65 µM	13.5 µM	0.658 µM	13.4 µM	0.615 µM	11.2 µM	0.432 µM	11.2 µM	0.368 µM	12.1 µM	0.522 µM	3.48 µM	0.305 µM	11.7 µM	0.788 µM	12.9 µM
Cc1cccc(NC(=O)c2sc3nc4c(cc3c2N)C(=O)CCC4)c1	0.527 µM	> 41 µM	0.105 µM	> 100 µM	0.464 µM	> 100 µM	0.368 µM	> 100 µM	0.302 µM	> 30 µM	0.333 µM	> 100 µM	0.272 µM	> 39.4 µM	0.252 µM		0.157 µM	> 100 µM	0.594 µM	> 100 µM
C[C@]12CC[C@H]3[C@@H](CCC4=CC(=O)CC[C@@]43C)[C@@H]1CC[C@@H]2c1csc(N)n1	10.7 µM	33.4 µM	2.33 µM	> 100 µM	10.2 µM	31.2 µM	1.41 µM	13.4 µM	6.72 µM	24.5 µM	3.15 µM	15.3 µM	8.62 µM	24.2 µM	10.8 µM	24.2 µM	3.42 µM	15.5 µM	1.21 µM	26.2 µM
O=C1Oc2ccccc2C(=O)/C1=C1/C=C(c2ccccc2)SS1		> 100 µM		> 100 µM		> 100 µM		> 100 µM		> 100 µM		> 100 µM		> 100 µM		> 100 µM		> 100 µM		> 100 µM
CC(Br)C(=O)NC(CO)C(=O)O (centres undefined)		> 100 µM		> 100 µM		> 100 µM		> 100 µM		> 100 µM		> 100 µM		> 100 µM		> 100 µM		> 100 µM		> 100 µM
O=C1/C(=C/c2ccc(Cl)c(Cl)c2)CN(C(=O)CCN2CCC(=NO)CC2)C/C1=C\c1ccc(Cl)c(Cl)c1	0.609 µM	1.45 µM	0.191 µM		0.599 µM	1.8 µM	0.584 µM	1.78 µM	1.21 µM	2.73 µM	0.267 µM	0.778 µM	1.38 µM	3.17 µM	1.13 µM	2.59 µM	0.333 µM	1.74 µM	0.253 µM	0.84 µM
Cc1ccc2c(-c3ccnc(Nc4ccc5c(c4)OCCO5)n3)c(-c3ccc(C(F)(F)F)cc3)nn2n1	> 21.3 µM	> 25 µM	20.3 µM	> 25 µM	> 25 µM	> 25 µM	1.42 µM	> 25 µM	> 20.6 µM	> 25 µM	7.32 µM	> 25 µM	> 8.65 µM	> 25 µM	4.39 µM	> 25 µM	5.66 µM	> 25 µM	2.13 µM	13.5 µM
COc1ccc2c(c1)C(=O)c1c-2c(Nc2ccccc2OC)nc2ccccc12	> 100 µM	> 100 µM	> 100 µM	> 100 µM	> 100 µM	> 100 µM	> 100 µM	> 100 µM	> 100 µM	> 100 µM	> 100 µM	> 100 µM	> 100 µM	> 100 µM	> 100 µM	> 100 µM	> 100 µM	> 100 µM	> 100 µM	> 100 µM
O=C(Nc1cccc(-n2cc(-c3ccncc3)c(-c3cc(O)cc(Cl)c3)n2)c1)c1ccc(N2CCOCC2)c(C(F)(F)F)c1	2.24 µM	10.1 µM	0.564 µM	4.88 µM	3.33 µM	33.6 µM	1.1 µM	6 µM	5.65 µM	> 100 µM	1.96 µM	> 100 µM	0.722 µM	> 100 µM	0.303 µM	1.9 µM	4.16 µM	> 100 µM	0.398 µM	2.31 µM
Cn1c([N+](=O)[O-])cnc1C=C1C(=O)c2ccccc2C1=O	5.18 µM	28.3 µM	3.34 µM	16.3 µM	15.1 µM	44.5 µM	3.56 µM	14.2 µM	6.45 µM	19.6 µM	3.77 µM	13.1 µM	2.99 µM	39.6 µM	2.6 µM	10.3 µM	3.44 µM	16.2 µM	3.36 µM	13 µM
O=C1CC(c2ccccc2)Oc2ccccc21 (centres undefined)		> 100 µM		32.6 µM		83.4 µM		> 100 µM		> 100 µM		> 100 µM		> 100 µM		94.4 µM		> 100 µM		37.9 µM
O=c1c2ccccc2sc2c(CO)ccc(NCCN3CCCCC3)c12		12.2 µM		5.36 µM		17.6 µM		13.3 µM		7.18 µM		11.8 µM		19.5 µM		7.72 µM		11.4 µM		4.6 µM
O=C1NC(=N[C@@H](CO)c2ccccc2)S/C1=C\c1ccc2ncccc2c1	> 21.9 µM	> 25 µM	9.04 µM	> 25 µM	24.2 µM	> 25 µM	3.06 µM	> 25 µM	13.8 µM	> 25 µM	5.22 µM	> 25 µM	3.64 µM	> 25 µM	5.84 µM	> 25 µM	8.38 µM	> 25 µM	8.16 µM	> 25 µM
COc1cc2c(cc1Nc1nc(N3CCc4ccccc43)c3cc[nH]c3n1)N(C(=O)CN(C)C)CC2	3 µM	8.99 µM	0.478 µM	1.2 µM	4.44 µM	11.5 µM	11 µM	16.3 µM	1.71 µM	3.87 µM	1.33 µM	2.91 µM	4.88 µM	9.97 µM	3.55 µM	8.89 µM	0.48 µM	2.09 µM	1.55 µM	3.98 µM
CNC(=O)c1ncccc1Nc1nc(Nc2cc3c(cc2OC)CCCN3C(=O)CN(C)C)nc2[nH]ccc12	3.23 µM	7.02 µM	1.88 µM	7.55 µM	3.49 µM	11.2 µM	2.74 µM	7.22 µM	0.753 µM	3.02 µM	1.11 µM	4.89 µM	3.03 µM	6.43 µM	0.974 µM	3.8 µM	0.073 µM	2.73 µM	0.842 µM	3.89 µM
CN[C@@H](C)C(=O)N[C@H]1CN(S(=O)(=O)c2cccc(S(=O)(=O)N3CC[C@H]4CC[C@@H](C(=O)NC(c5ccccc5)c5ccccc5)N4C(=O)[C@@H](NC(=O)[C@H](C)NC)C3)c2)CC[C@H]2CC[C@@H](C(=O)NC(c3ccccc3)c3ccccc3)N2C1=O	20 µM	43.8 µM	26.5 µM	> 100 µM	21.2 µM	43.6 µM	58.4 µM	> 100 µM	15.1 µM	28.3 µM	18.4 µM	51.2 µM		0.721 µM	0.165 µM	2.93 µM	6.93 µM	29.2 µM	3.92 µM	99.2 µM
